In patent US20240336574A1 (LATIGO BIOTHERAPEUTICS, INC., priority 2021, published 2024):
Where two headings read alike, the source gives them in different places.

Target: T1, recombinant human NaV1.8 stably transfected HEK cells (Homo sapiens, UniProt Q9Y5Y9)
T1 construct: expressed in transfected cells; host or cells: HEK cells, stably transfected
Assay: Compound profiling on NaV1.8, human NaV1.8 cell line, SyncroPatch384PE automated patch clamp assay (Example 102, first set of compounds, Table 16)
Format: cell-based
Conditions: human NaV1.8 HEK cells, Table 16 (first set of compounds)
Experimental: Compound Profiling on NaV1.8—Human NaV1.8 Cell Line—SyncroPatch384PE Assay
Compounds were tested on recombinant human NaV1.8 stably transfected HEK cells using the SyncroPatch384PE system, an automated patch clamp device. Cells were cultured at 37° C./5% CO2 in DMEM medium supplemented with GlutaMAX I, NEAA 1%, FBS 10% and seeded in T175 flasks. Cells were cultured at 30° C. one day prior to recording sodium currents. On the day of the recordings, cells were detached with 0.05% Trypsin-EDTA, resuspended in serum free DMEM medium and placed into the SyncroPatch384PE 6° C. pre-cooled cell hotel and shaken at 200 rpm. Intracellular solution (IC) contained, in mM: 10, CsCl; 110, CsF; 20, EGTA; 10, HEPES. Extracellular solution (EC) contained, in mM: 140, NaCl; 4, KCl; 5, Glucose; 10, HEPES; 2, CaCl2; 1, MgCl2. Washing solution contained, in mM: 40, NMDG; 100, NaCl; 4, KCl; 10, Glucose; 10, HEPES; 5, CaCl2; 1, MgCl2.
Compounds were tested in triplicate in 0.1% DMSO and 0.030% Pluronic Acid. Compounds were diluted 1:3 in EC solution to create a 10-point concentration response curve, spanning a final concentration range from 20-0.001 μM in the assay plate. Each plate contained tetracaine and another tool compound as positive controls. Up to 8 compounds were tested on one plate. 250 μM tetracaine and 0.1% DMSO were used as high and low controls, respectively. Whole cell patch clamp recordings were conducted according to Nanion's standard procedure for SyncroPatch384PE®. Cells were held at a holding potential of −120 mV. A depolarization step to 10 mV for 30 ms was applied (P1 measurement), followed by a hyperpolarization step to −100 mV for 100 ms. An inactivation step at −40 mV for 10 sec was applied before stepping to −100 mV for 20 ms, followed by a step to 10 mV for 30 ms (P2 measurement) and then back to −100 mV for 30 ms. Sweep interval was 15 sec with a sampling rate of 10 kHz. Following establishment of the whole-cell configuration in EC, two washing steps with reference buffer were performed to stabilize the baseline. Compounds were then applied by the SynchroPatch into each well and the current was recorded for five minutes in EC, followed by application of tetracaine to achieve full block at the end of the experiment. The potency of the compounds was assessed on two read-outs, resting state block (P1 measurement) or inactivated state block (P2 measurement) to obtain IC50 values. Values were normalized to high (tetracaine) and low (DMSO) controls. The IC50 values are listed in Table 16 as follows: “A” represents an IC50 less than or equal to 20 nM, “B” represents an IC50 greater than 20 nM to less than or equal to 40 nM, “C” represents an IC50 greater than 40 nM to less than or equal to 200 nM, “D” represents an IC50 greater than 200 nM to less than or equal to 500 nM.

[1] = inactivated state block (P2 measurement), read-out: P2IC50
[2] = resting state block (P1 measurement), read-out: P1IC50

T1 sequence (Q9Y5Y9 whole entry): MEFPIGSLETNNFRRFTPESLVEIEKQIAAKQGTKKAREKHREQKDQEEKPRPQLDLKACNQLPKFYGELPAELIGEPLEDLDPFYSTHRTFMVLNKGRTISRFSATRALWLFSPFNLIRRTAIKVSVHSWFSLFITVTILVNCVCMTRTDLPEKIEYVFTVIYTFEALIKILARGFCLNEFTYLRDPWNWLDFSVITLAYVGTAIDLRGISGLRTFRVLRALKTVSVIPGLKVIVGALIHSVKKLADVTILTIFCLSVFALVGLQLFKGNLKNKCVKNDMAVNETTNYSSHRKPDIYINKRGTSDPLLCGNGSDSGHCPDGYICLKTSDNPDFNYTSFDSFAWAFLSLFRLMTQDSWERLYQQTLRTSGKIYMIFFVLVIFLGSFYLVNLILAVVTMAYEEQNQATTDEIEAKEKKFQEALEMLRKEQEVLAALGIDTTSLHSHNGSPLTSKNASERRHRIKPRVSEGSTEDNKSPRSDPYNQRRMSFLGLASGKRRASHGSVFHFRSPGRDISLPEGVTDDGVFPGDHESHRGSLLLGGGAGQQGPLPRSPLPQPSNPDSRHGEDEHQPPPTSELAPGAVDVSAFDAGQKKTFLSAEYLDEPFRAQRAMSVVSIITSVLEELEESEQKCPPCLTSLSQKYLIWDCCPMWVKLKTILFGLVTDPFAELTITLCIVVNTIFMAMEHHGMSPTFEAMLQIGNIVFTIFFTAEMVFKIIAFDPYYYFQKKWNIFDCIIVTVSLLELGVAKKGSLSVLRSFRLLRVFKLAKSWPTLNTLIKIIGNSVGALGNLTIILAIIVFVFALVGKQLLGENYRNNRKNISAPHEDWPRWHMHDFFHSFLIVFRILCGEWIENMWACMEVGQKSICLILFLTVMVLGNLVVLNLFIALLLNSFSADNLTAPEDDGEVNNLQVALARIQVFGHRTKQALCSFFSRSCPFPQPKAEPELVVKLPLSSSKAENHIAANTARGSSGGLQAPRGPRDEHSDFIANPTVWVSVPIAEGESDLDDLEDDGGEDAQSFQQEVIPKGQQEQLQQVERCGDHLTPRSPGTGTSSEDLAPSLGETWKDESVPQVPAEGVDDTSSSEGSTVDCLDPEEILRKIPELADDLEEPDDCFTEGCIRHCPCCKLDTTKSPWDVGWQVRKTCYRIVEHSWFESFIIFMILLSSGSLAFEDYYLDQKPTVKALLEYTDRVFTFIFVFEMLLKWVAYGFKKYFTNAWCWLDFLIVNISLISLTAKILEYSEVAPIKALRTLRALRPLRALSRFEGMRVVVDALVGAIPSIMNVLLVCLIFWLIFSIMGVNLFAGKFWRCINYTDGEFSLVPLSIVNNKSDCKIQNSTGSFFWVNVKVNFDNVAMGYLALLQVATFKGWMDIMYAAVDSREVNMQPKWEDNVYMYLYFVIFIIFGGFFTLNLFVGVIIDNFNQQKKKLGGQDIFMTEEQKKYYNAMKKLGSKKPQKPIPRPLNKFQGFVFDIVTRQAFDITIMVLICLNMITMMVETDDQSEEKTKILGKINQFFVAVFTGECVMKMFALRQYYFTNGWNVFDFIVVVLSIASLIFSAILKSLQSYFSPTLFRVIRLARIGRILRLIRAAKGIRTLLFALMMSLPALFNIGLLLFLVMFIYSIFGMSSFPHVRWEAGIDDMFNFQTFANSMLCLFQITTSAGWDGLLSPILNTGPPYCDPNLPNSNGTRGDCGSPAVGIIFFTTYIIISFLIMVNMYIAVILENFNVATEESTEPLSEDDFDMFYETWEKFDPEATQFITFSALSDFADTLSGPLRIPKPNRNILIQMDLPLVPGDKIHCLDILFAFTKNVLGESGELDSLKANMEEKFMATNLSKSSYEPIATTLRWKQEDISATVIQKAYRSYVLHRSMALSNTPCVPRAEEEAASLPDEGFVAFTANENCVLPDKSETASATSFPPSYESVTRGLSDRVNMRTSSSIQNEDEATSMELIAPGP

Row | Structure (SMILES) | IC50 [1] | IC50 [2]
1 | COc1cc(C#N)ccc1Oc1nnc(-c2ccc(C)nc2)c(C)c1C(=O)Nc1cccc(S(C)(=N)=O)c1 (stereo not shown) [Compound 1455, 3-(4-cyano-2-methoxy-phenoxy)-5-methyl-6-(6-methyl-3-pyridyl)-N-[3-(methylsulfonimidoyl)phenyl]pyridazine-4-carboxamide] | 200 to 500 nM | 200 to 500 nM
2 | COc1nc(Br)ccc1Oc1ncc(C(F)(F)F)cc1C(=O)Nc1cccc(S(C)(=N)=O)c1 (stereo not shown) [Compound 1685] | ≤ 20 nM | ≤ 20 nM
3 | Cc1c(C(F)(F)F)nnc(Oc2ccc(OC(F)(F)F)cc2F)c1C(=O)Nc1cccc(S(C)(=O)=O)c1 [Compound 1467, 3-[2-fluoro-4-(trifluoromethoxy)phenoxy]-N-(3-methanesulfonylphenyl)-5-methyl-6-(trifluoromethyl)pyridazine-4-carboxamide] | ≤ 20 nM | ≤ 20 nM
4 | Cc1cc(F)ccc1Oc1ncc(C#N)cc1C(=O)Nc1cccc(S(C)(=N)=O)c1 (stereo not shown) [Compound 1578] | 200 to 500 nM | 200 to 500 nM
5 | CS(=O)(=O)c1cccc(NC(=O)c2cc(C(F)(F)F)cnc2Oc2ccc(C#N)nc2)c1 [Compound 1703] | 200 to 500 nM | 200 to 500 nM
6 | COc1cc(C#N)ccc1Oc1ncc(C(F)(F)F)cc1C(=O)Nc1cccc(S(C)(=N)=O)c1 (stereo not shown) [Compound 1562, 2-(4-cyano-2-methoxyphenoxy)-N-{3-[imino(methyl)oxo-λ^6-sulfanyl]phenyl}-5-(trifluoromethyl)pyridine-3-carboxamide] | ≤ 20 nM | ≤ 20 nM
7 | COc1c(Oc2nnc(C(F)(F)F)c(C)c2C(=O)Nc2cccc(S(C)(=N)=O)c2)ccc(F)c1F (single isomer, unassigned) [Compound 1473, 3-(3,4-difluoro-2-methoxy-phenoxy)-5-methyl-N-[3-(methylsulfonimidoyl)phenyl]-6-(trifluoromethyl)pyridazine-4-carboxamide] | ≤ 20 nM | ≤ 20 nM
8 | Cc1ccc(Oc2nnc(C(F)(F)F)c(C)c2C(=O)Nc2cccc(S(C)(=N)=O)c2)c(C)n1 (single isomer, unassigned) [Compound 1485, 3-[(2,6-dimethylpyridin-3-yl)oxy]-N-{3-[imino(methyl)oxo-λ^6-sulfanyl]phenyl}-5-methyl-6-(trifluoromethyl)pyridazine-4-carboxamide] | – | 200 to 500 nM
9 | COc1cc(Cl)ccc1Oc1nnc(C(F)(F)F)c(C)c1C(=O)Nc1ccc(C(N)=O)cc1 [Compound 1403] | 20 to 40 nM | 20 to 40 nM
10 | COc1c(Oc2nnc(C(F)(F)F)c(C)c2C(=O)Nc2cccnc2)ccc(F)c1F [Compound 1475, 3-(3,4-difluoro-2-methoxy-phenoxy)-5-methyl-N-(3-pyridyl)-6-(trifluoromethyl)pyridazine-4-carboxamide] | ≤ 20 nM | ≤ 20 nM
11 | CS(=N)(=O)c1cccc(NC(=O)c2cc(C(F)(F)F)cnc2Oc2ccc(OC(F)F)nc2)c1 (stereo not shown) [Compound 1646] | 40 to 200 nM | 40 to 200 nM
12 | COc1ncc(C#N)cc1Oc1ncc(C(F)(F)F)cc1C(=O)Nc1cccc(S(C)(=N)=O)c1 (stereo not shown) [Compound 1623] | 200 to 500 nM | 200 to 500 nM
13 | Cc1c(C(F)(F)F)nnc(Oc2ccc(Cl)cc2F)c1C(=O)Nc1ccc(C(N)=O)cc1 [Compound 1404] | 40 to 200 nM | 40 to 200 nM
14 | CS(=N)(=O)c1cccc(NC(=O)c2cc(C(F)(F)F)cnc2Oc2ccc(OC3CC3)cc2)c1 (stereo not shown) [Compound 1588] | 40 to 200 nM | 40 to 200 nM
15 | CS(=N)(=O)c1cccc(NC(=O)c2cc(C(F)(F)F)cnc2Oc2cnc(C(F)(F)F)nc2)c1 (stereo not shown) [Compound 1696] | 200 to 500 nM | 200 to 500 nM
16 | COc1c(Oc2ncc(Br)cc2C(=O)Nc2cccc(S(C)(=N)=O)c2)ccc(F)c1F (stereo not shown) [Compound 1567, 5-bromo-2-(3,4-difluoro-2-methoxy-phenoxy)-N-[3-(methylsulfonimidoyl)phenyl]pyridine-3-carboxamide] | ≤ 20 nM | ≤ 20 nM
17 | COc1cc(F)c(F)cc1Oc1ncc(C(F)(F)F)cc1C(=O)Nc1cccc(S(C)(=O)=O)c1 [Compound 1615] | ≤ 20 nM | ≤ 20 nM
18 | COc1c(Oc2nnc(C(F)(F)F)c(C)c2C(=O)Nc2cccc(C(N)=O)c2)ccc(F)c1F [Compound 1549, N-(3-carbamoylphenyl)-3-(3,4-difluoro-2-methoxy-phenoxy)-5-methyl-6-(trifluoromethyl)pyridazine-4-carboxamide] | ≤ 20 nM | ≤ 20 nM
19 | COc1c(Oc2nnc(C(F)(F)F)c(C)c2C(=O)Nc2cccc(S(C)(=N)=O)c2)ccc(F)c1F (stereo not shown) [Compound 23] | 20 to 40 nM | ≤ 20 nM
20 | COc1cc(F)ccc1Oc1ncc(C(F)(F)F)cc1C(=O)Nc1cc(S(C)(=O)=O)ccc1F [Compound 1576] | 40 to 200 nM | 40 to 200 nM
21 | Cc1cc(F)ccc1Oc1nnc(C(F)(F)F)c(-c2ccccc2)c1C(=O)Nc1cccc([S@@](C)(=N)=O)c1 [Compound 1520, (S)-3-(4-fluoro-2-methylphenoxy)-N-(3-(S-methylsulfonimidoyl)phenyl)-5-phenyl-6-(trifluoromethyl)pyridazine-4-carboxamide] | 200 to 500 nM | 200 to 500 nM
22 | COc1c(Oc2nnc(C(F)(F)F)c(C)c2C(=O)Nc2ccc[n+]([O-])c2)ccc(F)c1F [Compound 1476, 3-(3,4-difluoro-2-methoxy-phenoxy)-5-methyl-N-(1-oxidopyridin-1-ium-3-yl)-6-(trifluoromethyl)pyridazine-4-carboxamide] | ≤ 20 nM | ≤ 20 nM
23 | Cc1cc(C#N)ccc1Oc1nnc(C(F)(F)F)c(C)c1C(=O)Nc1cccc([S@](C)(=N)=O)c1 [Compound 1526, 3-(4-cyano-2-methylphenoxy)-N-{3-[(R)-imino(methyl)oxo-λ^6-sulfanyl]phenyl}-5-methyl-6-(trifluoromethyl)pyridazine-4-carboxamide] | ≤ 20 nM | ≤ 20 nM
24 | CS(=O)(=O)c1cccc(NC(=O)c2cc(C(F)(F)F)cnc2Oc2cnc(Cl)c3ccccc23)c1 [Compound 1582] | 200 to 500 nM | 200 to 500 nM
25 | CO/N=C(\C)c1cccc(NC(=O)c2c(Oc3ccc(C#N)cc3OC)nnc(C(F)(F)F)c2C)c1 [Compound 1545, 3-(4-cyano-2-methoxy-phenoxy)-N-[3-[(E)-N-methoxy-C-methyl-carbonimidoyl]phenyl]-5-methyl-6-(trifluoromethyl)pyridazine-4-carboxamide] | 200 to 500 nM | 200 to 500 nM
26 | Cc1nc(F)ccc1Oc1ncc(C(F)(F)F)c(C)c1C(=O)Nc1cccc([S@@](C)(=N)=O)c1 [Compound 1560, (S)-2-((6-fluoro-2-methylpyridin-3-yl)oxy)-4-methyl-N-(3-(S-methylsulfonimidoyl)phenyl)-5-(trifluoromethyl)nicotinamide] | ≤ 20 nM | ≤ 20 nM
27 | Cc1cc(C#N)ccc1Oc1nnc(C(F)(F)F)c(C)c1C(=O)Nc1cccc(S(C)(=O)=O)c1 [Compound 1465, 3-(4-cyano-2-methylphenoxy)-N-(3-methanesulfonylphenyl)-5-methyl-6-(trifluoromethyl)pyridazine-4-carboxamide] | ≤ 20 nM | ≤ 20 nM
28 | CS(=O)(=O)c1cccc(NC(=O)c2cc(C(F)(F)F)cnc2Oc2ccc3c(c2)NC(=O)C3)c1 [Compound 1601] | 200 to 500 nM | 200 to 500 nM
